Laboratory results from patent US11046657B2, “Pyrimidinone derivatives and uses thereof to neutralize the biological activity of chemokines” (Centre National de la Recherche Scientifique (CNRS), priority 2016, dated 2021).

Tests used:
CXCL12 = conditions: cited from earlier work
CXCR4 = conditions: cited from earlier work
MRL/lpr mice = assay: Peripheral hypercellularity in MRL/lpr lupus prone mice; format: in vivo; conditions: single i.v. administration, 100 μg/mouse, counted five days later; p <0.05
Description: Effect of compound (1) and classical anti-inflammatory drugs on peripheral hypercellularity in MRL/lpr mice. MRL/lpr mice (11-13 week-old) received intravenously a single administration of either compound (1) or chalcone 4-Phosphate or indicated molecules in saline (100 μg/mouse of each). The control group received saline only. The number of white blood cells (WBCs)/mL was evaluated by counting cells five days later. The results are expressed as the mean reduction of peripheral WBCs percentage+/−SEM. Statistical significance was assessed using the unpaired t-test. n=number of mice/group; ns=non-significant. […]
The test was as described previously (Schall et al., 2012; Briand et al., 2014). […] After centrifugation, white blood cells (WBCs) resuspended in phosphate buffer saline containing fetal calf serum were stained with acridine orange/propidium iodide and counted using a LUNA FL apparatus (logos Biosystems, Annandale, USA). The number of living WBCs in each group was compared to the one counted in the control group and the decrease of peripheral cell number was calculated. […] The results are expressed as the mean decreased of peripheral WBCs percentage SEM. Statistical differences were determined using the unpaired t test. Statistical results were calculated using the graphPad Prism software.

C57BL/6J mice = assay: Fentanyl-induced hyperalgesia, tail immersion test

Structure (SMILES)	Intracellular calcium responses (CXCL12)	CXCR4 internalization in response to CXCL12 (CXCR4)	Peripheral blood hypercellularity (WBCs) (MRL/lpr mice)	Secondary hyperalgesia induced by fentanyl (C57BL/6J mice; 10 mg/kg i.p., co-administered with fentanyl)	Nociceptive threshold, compound alone (C57BL/6J mice; 50 mg/kg, i.p., without fentanyl)
COc1cc(/C=C/C(=O)c2ccc(Cl)cc2)ccc1O [Chalcone-4, (E)-1-(4-Chlorophenyl)-3-(4-hydroxy-3-methoxyphenyl)prop-2-en-1-one, reference compound]	inhibits intracellular calcium responses	prevents CXCR4 internalization	–	–	–
COc1cc(-c2cc(-c3ccc(Cl)cc3)nc(=O)[nH]2)ccc1O [compound (1), 4-(4-Chlorophenyl)-6-(4-hydroxy-3-methoxyphenyl)pyrimidin-2(1H)-one]	–	–	significantly reduce peripheral blood hypercellularity	completely prevented the development of secondary hyperalgesia	no effect on the nociceptive threshold
